Data reported in patent US5696229A, “Polypeptide with laminin cell adhesion and morphogenesis activity” (The University of Virginia Patent Foundation, priority 1995, dated 1997).
Peptide text beside a SMILES is read from it.

Columns and labels:
[1] = system: HT1080 human fibrosarcoma cells; assay: Cell adhesion studies, HT1080 cells on coated plates (Example 1); type: cell-based
Description: (§1) Plates coated overnight (4° C.) with equimolar amounts of laminin, laminin fragment, or synthetic peptide were blocked with 1% BSA (Sigma Chemical Co.) for 4 h (4° C.) and cells were subsequently added (2×10^4 /well) in serum-free media and incubated for 60 min (37° C.) according to the method of Aumailey and Timpl (1986). Inhibition studies were carried out by preincubating cells for 30 min (37°; gentle agitation every 5 min) with equimolar amounts of soluble fragment or peptide. Cells, together with soluble inhibitor, were then added to the coated plates. After a 60-min (37° C.) incubation, plates were washed twice with PBX, fixed with 1% glutarldehyde (Electron Microscopy Service Laboratories, Westmount, N.J.), PBS, washed, stained with 0.1% crystal violet (Serra Biochemicals, Hauppauge, N.Y.), washed twice with distilled water, solubilized in 0.5% Triton X-100 (Sigma Chemical Co.), and read on an ELISA plate reader (Molecular Devices Corp., Menio Park, Calif.) equipped with a 595-nm filter.

[2] = system: type II alveolar cells; type: cell-based, rat; details: for Area: Table II, laminin A chain synthetic peptide preincubated with cells before plating on BMS, None = 108 ± 23; for Inhibition of alveolar formation by soluble laminin fragment or peptide: preincubated with cells prior to plating on BMS, day five; for Area (of cellular structures): cells plated on 1.8 mg/cm^2 gelled protein substrate, 5 d, mean ± SD, alveoli defined as > 20 × 10^3 um^2; for Alveolar formation on substrate: cells plated on equal milligram amounts of gelled substrate
Description: Type II alveolar cells were isolated from 250-g Sprague Dawley rats (Hilltop Laboratory Animals, Inc.) according to the method of Rannels (Rannels and Rannels, 1988). Briefly, an initial cardiac perfusion with 0.9% saline was followed by instillation of the airways with 0.1% elastase (Calbiochem Corp., La Jolla, Calif.) in Joklik's modified minimal medium (JMEM) containing 0.05% BaSO4. Elastase was inactivated by instillation of JMEM containing soybean trypsin inhibitor (0.08%; Sigma Chemical Co., St. Louis, Mo.), DNase (0.08%. Sigman Chemical Co.), and 50% newborn calf serum (GIBCO BRL, Gaithersburg, Md.). Lung tissue was minced, vortexed, and filtered through 160-μm nylon mesh (Tetko, Elmsford, N.Y.). Released cells were centrifuged for 10 min at 500 g, resuspended in JMEM containing 0.08% DNAse, and layered on a Percoll (Pharmacia Fine Chemicals) discontinuous density gradient. After centrifugation for 20 min (4° C.) , cells were collected at the 1.04/1.08 interface, washed in JMEM, brought up in DME containing 10% fetal bovine serum (FBS) (GIBCO BRL), and incubated for 30 min (37° C.) in 75-cm^2 tissue culture flasks to eliminate contaminating macrophage cells which rapidly adhere to the plastic surface. The resultant type II alveolar cell preparations were 95% viable as determined by trypan blue exclusion; purity was 93% as assessed by the presence of lamellar bodies visible with Hoffman optics at a magnification of 40 and by tannic acid staining. Analysis of total cellular DNA/well on each day of an experiment was performed in triplicate on trypsin/disease released cells using a DNA fluorometry assay (Labarca and Paigen, 1980).
Freshly isolated type II alveolar cells were plated in 96-well plates at 20×10^3 cells/well on 500 μg/well (1.8 mg/cm^2) of gelled BMS of collagen I. Cells were cultured over 5 d with on media change performed on day three. Alveolar formation was analyzed at 24-h intervals over 5 d from photographic negatives (4×original magnification of central portion of each well) of triplicate wells. Images from negatives were transferred via video camera to an Image I imaging system (Universal Imaging Corp., West Chester, Pa.) and viewed on a color video monitor. The area of cellular structures was then determined and expressed as the mean±standard deviation. In some cases two size categories were distinguished: (a) single cells (200-300 μm^2) and (b) model alveoli (20×10^3 μm^2 or greater) with data expressed as percent of area occupied by each category.
(§2) In alveolar inhibition studies, antibodies (50 μg/well) were incubated with gelled BMS (500 μg/well) in wells of 96-well plates for 60 min at 37° C. Unbound antibody was removed by three DME washes (200 μl/well) and then freshly isolated cells were added. Dose-response assays were performed on all antibodies. Laminin fragments and synthetic peptides (micromolar amount indicated on figures) were preincubated with freshly isolated type II alveolar cells in suspension for 30 min at 37° C. with gentle agitation every 5 min; cells together with fragment or peptide were then plated on BMS. Cell viability in the presence of each antibody, fragment, or synthetic peptide was accessed using the MTT (3-[4,5-dimethylthiazol-2-yl]-2,5-diphenyl tetrazolium bromide) assay (Chemicon International, Inc. Temecula, Calif.).

[3] = system: type II alveolar cells; type: cell-based, rat
Description: as §2

[4] = system: type II alveolar cells; assay: Cell adhesion studies, type II alveolar cells on coated plates (Example 1); type: cell-based, rat; details: coating 100 μM
Description: as §1

Molecule: O=C(O)CN(CCN(CC(=O)O)CC(=O)O)CC(=O)O [EDTA, reference compound]
- Inhibition of HT1080 cell adhesion to SN-peptide ([1]; cells preincubated with inhibitor, coating and inhibitor 100 μM, EDTA 2 mM): inhibited

Molecule: CC[C@H](C)[C@H](NC(=O)[C@@H](N)CO)C(=O)N[C@@H](CC(N)=O)C(=O)N[C@@H](CC(N)=O)C(=O)N[C@@H](CC(N)=O)C(=O)N[C@@H](CCCNC(=N)N)C(=O)O [SINNNR] (H-SINNNR-OH)
- IC50 [2]: 68 µM

Molecule: CC[C@H](C)[C@H](NC(=O)[C@H](CO)NC(=O)[C@H](Cc1c[nH]cn1)NC(=O)[C@H](Cc1c[nH]c2ccccc12)NC(=O)[C@H](CCCNC(=N)N)NC(=O)[C@H](CC(N)=O)NC(=O)[C@H](CC(N)=O)NC(=O)[C@H](CC(N)=O)NC(=O)[C@@H](NC(=O)[C@@H](N)CO)[C@@H](C)CC)C(=O)N[C@@H](Cc1ccc(O)cc1)C(=O)N[C@H](C(=O)N[C@H](C(=O)N[C@@H](CCCNC(=N)N)C(=O)N[C@@H](Cc1ccccc1)C(=O)NCC(=O)N[C@@H](CC(N)=O)C(=O)N[C@@H](CCSC)C(=O)NCC(=O)N[C@@H](CO)C(=O)O)[C@@H](C)O)[C@@H](C)CC [SN-peptide] (H-SINNNRWHSIYITRFGNMGS-OH)
- IC50 [2]: 50 µM
- Cell viability [3]: 97±1%

Molecule: AASIKVAVSADR [peptide from mouse laminin A chain, antigen of ab-A[IK], reference compound]
- Area [2]: 98 ± 22 μm^2 × 10^3
- Inhibition of alveolar formation by soluble laminin fragment or peptide [2]: no effect on alveolar formation

Molecule: AASVVIAKSADR [scrambled IKVAV control peptide, reference compound]
- Area [2]: 100 ± 18 μm^2 × 10^3
- Inhibition of alveolar formation by soluble laminin fragment or peptide [2]: no effect on alveolar formation

Molecule: Collagen IV: Mouse collagen IV
- Area (of cellular structures) [2]: 0.4 ± 0.2 μm^2 × 10^3

Molecule: FGNMGS [carboxy-terminal 6-mer of SN-peptide from trypsin digestion]
- Inhibition of alveolar formation by soluble laminin fragment or peptide [2]: minimal

Molecule: KQNCLSSRASFRGCVRNLRLSR [reference compound]
- Area [2]: 110 ± 19 μm^2 × 10^3
- Inhibition of alveolar formation by soluble laminin fragment or peptide [2]: no effect on alveolar formation

Molecule: Laminin: Mouse laminin, large cross-shaped cell adhesive heterotrimer
- Area (of cellular structures) [2]: 35 ± 3 μm^2 × 10^3
- Alveolar formation on substrate [2]: alveoli formed only on laminin
- Adhesion of type II alveolar cells to coated substrate [4]: Adhesion
- Percent cell attachment ([1]; HT1080 cells, substrate coated at 35 μM, mean ± SD): 80 ± 0.02%

Molecule: RGDS [functionally identical to RGDN, P1 fragment cell adhesion site, reference compound]
- Area [2]: 105 ± 24 μm^2 × 10^3
- Inhibition of alveolar formation by soluble laminin fragment or peptide [2]: no effect on alveolar formation

Molecule: WHSIYITR [middle 8-mer of SN-peptide from trypsin digestion]
- Inhibition of alveolar formation by soluble laminin fragment or peptide [2]: partial

Molecule: collagen I: Rat tail collagen I, negative control substrate
- Alveolar formation on substrate [2]: completely ineffective

B1: Entactin: Mouse entactin purchased from Upstate Biotechnology (protein, UniProt P10493 29-1245, looked up)
Nidogen-1: LNRQELFPFGPGQGDLELEAGDDVVSPSLELIGELSFYDRTDITSVYVTTNGIIAMSEPPATEYHPGTFPPSFGSVAPFLADLDTTDGLGNVYYREDLSPFIIQMAAEYVQRGFPEVSFQPTSVVVVTWESVAPYGGPSSSPAEEGKRNTFQAVLASSNSSSYAIFLYPEDGLQFFTTFSKKDESQVPAVVGFSKGLVGFLWKSNGAYNIFANDRESIENLAKSSNAGHQGVWVFEIGSPATAKGVVSADVNLDLDDDGADYEDEDYDLVTSHLGLEDVATPSPSHSPRRGYPDPHNVPRILSPGYEATERPRGVPTERTRSFQLPAERFPQHHPQVIDVDEVEETGVVFSYNTGSQQTCANNRHQCSVHAECRDYATGFCCRCVANYTGNGRQCVAEGSPQRVNGKVKGRIFVGSSQVPVVFENTDLHSYVVMNHGRSYTAISTIPETVGYSLLPLAPIGGIIGWMFAVEQDGFKNGFSITGGEFTRQAEVTFLGHPGKLVLKQQFSGIDEHGHLTISTELEGRVPQIPYGASVHIEPYTELYHYSSSVITSSSTREYTVMEPDQDGAAPSHTHIYQWRQTITFQECAHDDARPALPSTQQLSVDSVFVLYNKEERILRYALSNSIGPVRDGSPDALQNPCYIGTHGCDSNAACRPGPGTQFTCECSIGFRGDGQTCYDIDECSEQPSRCGNHAVCNNLPGTFRCECVEGYHFSDRGTCVAAEDQRPINYCETGLHNCDIPQRAQCIYMGGSSYTCSCLPGFSGDGRACRDVDECQHSRCHPDAFCYNTPGSFTCQCKPGYQGDGFRCMPGEVSKTRCQLEREHILGAAGGADAQRPTLQGMFVPQCDEYGHYVPTQCHHSTGYCWCVDRDGRELEGSRTPPGMRPPCLSTVAPPIHQGPVVPTAVIPLPPGTHLLFAQTGKIERLPLERNTMKKTEAKAFLHIPAKVIIGLAFDCVDKVVYWTDISEPSIGRASLHGGEPTTIIRQDLGSPEGIALDHLGRTIFWTDSQLDRIEVAKMDGTQRRVLFDTGLVNPRGIVTDPVRGNLYWTDWNRDNPKIETSHMDGTNRRILAQDNLGLPNGLTFDAFSSQLCWVDAGTHRAECLNPAQPGRRKVLEGLQYPFAVTSYGKNLYYTDWKTNSVIAMDLAISKEMDTFHPHKQTRLYGITIALSQCPQGHNYCSVNNGGCTHLCLPTPGSRTCRCPDNTLGVDCIERK
- Area (of cellular structures) [2]: 1 ± 0.5 μm^2 × 10^3
